Source: patent publication US20240002332A1, “Small Molecule Inhibitors of SARS-CoV-2 Infections” (priority 2020, published 2024)
Values joined by “and” are separate entries in the source; they are usually repeats but may differ in a detail not shown here. Identical values can stand only once. Like-named read-outs stand apart in the source and are kept apart here.

Legend:
[1] = tested on: SARS CoV-2 (USA_WA1/2020); assay: Cytopathic effect (CPE) assay; assay type: cell-based; details: Severe acute respiratory syndrome coronavirus 2, Vero C1008, 72 h
Vero-E6 = assay: Cytotoxicity counter screen (cell viability, CellTiter-Glo); assay type: cell-based
Procedure: Compound cytotoxicity was assessed in a BSL-2 counter screen as follows: Cell culture media (MEM, 1% Pen/Strep/GlutaMax, 1% HEPES, 2% HI FBS) was dispensed at 5 μl/well into ARPs and incubated at room temperature to allow for compound dissolution. Vero-E6 (selected for high ACE2 expression) was dispensed into assay plates at 4000 cells/well in 25 μl media. Assay plates were incubated for 72 h at 37 C, 5% CO2, 90% humidity. Then, 30 μl/well of CellTiter-Glo (Promega #G7573) was dispensed into the assay plate. Luminescence was read using a BMG PHERAstar plate reader following incubation at room temperature for 10 min to measure cell viability.

[2] = Pharmacokinetics in male hamsters, plasma and lung, IV 3 mg/kg or PO 30 mg/kg; details: for Kp at 0.083 h / Kp at 4 h / Kp at 2 h / Kp at 8 h / Kp at 0.5 h / Kp at 1 h / Kp at […]: Ratio (Lung/Plasma)
Procedure: Compound P3 was administered intravenously (3 mg/kg dosing in 20% HP-β-CD in water) or orally (30 mg/kg dosing in 20% HP-β-CD in water).

in vivo = details: C57BL/6, mouse, po, C57BL/6 mice; for AUC(0-inf): AUCInf; for AUC(0-inf) / AUC(0-t) / Cmax / Tmax: Compound P3 in plasma; for AUC(0-t): AUClast; for half-life: t1/2, Compound P3 in plasma
[3] = Rat liver microsomal (RLM) stability; details: rat, microsomes
SARS-CoV-2 = details: EIDD-2801 250 mpk BID; Compound P3 60 mpk BID
From the text: EIDD-2801 (molnupiravir) was chosen as the positive control at 250 mpk BID oral dose.

[4] = Parallel artificial membrane permeability assay (PAMPA); details: PAMPA, pH 5
[5] = Compound P3 IV 3 mg/kg, 0.083 h, individual animals, 3 mg/kg
[6] = Compound P3 IV 3 mg/kg, 4 h, individual animals, 3 mg/kg
[7] = Compound P3 IV 3 mg/kg, 8 h, individual animals, 3 mg/kg
[8] = Compound P3 IV 3 mg/kg, 24 h, individual animals, 3 mg/kg
[9] = Compound P3 PO 30 mg/kg, 0.5 h, individual animals, 30 mg/kg
[10] = Compound P3 PO 30 mg/kg, 1 h, individual animals, 30 mg/kg
[11] = Compound P3 PO 30 mg/kg, 2 h, individual animals, 30 mg/kg
[12] = Compound P3 PO 30 mg/kg, 4 h, individual animals, 30 mg/kg
[13] = Compound P3 PO 30 mg/kg, 8 h, individual animals, 30 mg/kg
[14] = Compound P3 intravenously or orally
[15] = Compound P3 in plasma, PO 50 mg/kg (PO_A), C57BL/6 mice, individual mice, 50 mg/kg
[16] = Compound P3 in plasma, PO 100 mg/kg (PO_B), C57BL/6 mice, individual mice, 100 mg/kg
[17] = 50 mg/kg, PO 50 mg/kg (PO_A), Mean n = 3
[18] = 50 mg/kg, PO 50 mg/kg (PO_A), individual mice
[19] = 100 mg/kg, PO 100 mg/kg (PO_B), Mean n = 3
[20] = 100 mg/kg, PO 100 mg/kg (PO_B), individual mice

`O=C(Nc1ccc([N+](=O)[O-])cc1Cl)c1cc(Cl)ccc1OC(=O)N1CCNCC1` [Compound P3, 4-chloro-2-((2-chloro-4-nitrophenyl)carbamoyl)phenyl piperazine-1-carboxylate] gave an IC50 [1] of 4.05 µM, an Emax ([1]; read-out: Efficacy CPE assay) of 40.7% and an IC50 (Vero-E6; Chlorocebus sabaeus, Vero C1008, 72 h, read-out: IC50 (μM) cell viability) of 7.21 µM. For the same molecule, the Efficacy cell viability (Vero-E6; uninfected Vero-E6, 72 h, CellTiter-Glo) was −99.8, the “Lung” value [2, 5] was 15360 ng/g and 23120 ng/g and the “Ratio (Lung/Plasma)” value [2, 5] was 36.0 and 31.0. For the same molecule, the “Lung” value [2, 6] was 1436 ng/g and 2904 ng/g and 1800 ng/g, the “Ratio (Lung/Plasma)” value [2, 6] was 111 and 59.4 and the “Lung” value [2, 7] was 263 ng/g and 275 ng/g. The “Ratio (Lung/Plasma)” value [2, 7] was 45.3 and 76.3 and 109, the plasma concentration ([2]; Compound P3 IV 3 mg/kg, 24 h, individual animals) was “BLOQ” and the “Lung” value [2, 8] was 8.44 ng/g and 3.59 ng/g. For the same molecule, the “lung concentration, Conc. (ng/mL)” value [2, 8] was “BLOQ”, the “Lung” value [2, 9] was 113200 ng/g and 72400 ng/g and 33400 ng/g and the “Ratio (Lung/Plasma)” value [2, 9] was 53.2 and 59.7. For the same molecule, the “Lung” value [2, 10] was 82400 ng/g and 105600 ng/g, the “Ratio (Lung/Plasma)” value [2, 10] was 69.2 and 130 and the “Lung” value [2, 11] was 102000 ng/g and 74400 ng/g. The “Ratio (Lung/Plasma)” value [2, 11] was 96.2 and 108, the “Lung” value [2, 12] was 48800 ng/g and 65200 ng/g and the “Ratio (Lung/Plasma)” value [2, 12] was 215 and 97.6 and 73.2. For the same molecule, the “Lung” value [2, 13] was 6800 ng/g and 2928 ng/g and 7080 ng/g, the “Ratio (Lung/Plasma)” value [2, 13] was 191 and 311 and the plasma concentration ([2]; Compound P3 PO 30 mg/kg, 24 h, individual animals) was “BLOQ”. For the same molecule, the “Lung” value ([2]; Compound P3 PO 30 mg/kg, 24 h, individual animals, 30 mg/kg) was 38.2 ng/g and 22.6 ng/g and 11.1 ng/g, the “amount of active metabolite in lung tissue relative to plasma concentration” value [2, 14] was “significantly higher amount of active metabolite in lung tissue” and the “overall concentration of active metabolite” value [2, 14] was “provided a higher overall concentration of active metabolite”. For the same molecule, the concentration at 0.083 h ([2]; male, hamster, in vivo, iv, 3 mg/kg, Lung (ng/g), Compound P3 IV 3 mg/kg, 0.083 h, individual animals) was 27400 ng/g, the concentration at 8 h ([2]; male, hamster, in vivo, iv, 3 mg/kg, Lung (ng/g), Compound P3 IV 3 mg/kg, 8 h, individual animals) was 270 ng/g and the Kp at 0.083 h ([2]; male, hamster, in vivo, iv, 3 mg/kg, Compound P3 IV 3 mg/kg, 0.083 h, individual animals) was 34.1. For the same molecule, the Kp at 4 h ([2]; male, hamster, in vivo, iv, 3 mg/kg, Compound P3 IV 3 mg/kg, 4 h, individual animals) was 68.4, the Kp at 0.083 h ([2]; male, hamster, in vivo, iv, 3 mg/kg, Mean, Compound P3 IV 3 mg/kg, 0.083 h) was 33.7 and the Kp at 2 h ([2]; male, hamster, in vivo, iv, 3 mg/kg, Mean, Compound P3 IV 3 mg/kg, 2 h) was 81. The Kp at 4 h ([2]; male, hamster, in vivo, iv, 3 mg/kg, Mean, Compound P3 IV 3 mg/kg, 4 h) was 80, the Kp at 8 h ([2]; male, hamster, in vivo, iv, 3 mg/kg, Mean, Compound P3 IV 3 mg/kg, 8 h) was 77 and the concentration at 1 h ([2]; male, hamster, in vivo, po, 30 mg/kg, Lung (ng/g), Compound P3 PO 30 mg/kg, 1 h, individual animals) was 106000 ng/g. For the same molecule, the concentration at 2 h ([2]; male, hamster, in vivo, po, 30 mg/kg, Lung (ng/g), Compound P3 PO 30 mg/kg, 2 h, individual animals) was 67600 ng/g, the concentration at 4 h ([2]; male, hamster, in vivo, po, 30 mg/kg, Lung (ng/g), Compound P3 PO 30 mg/kg, 4 h, individual animals) was 65600 ng/g and the Kp at 0.5 h ([2]; male, hamster, in vivo, po, 30 mg/kg, Compound P3 PO 30 mg/kg, 0.5 h, individual animals) was 89.1. The Kp at 1 h ([2]; male, hamster, in vivo, po, 30 mg/kg, Compound P3 PO 30 mg/kg, 1 h, individual animals) was 98.1, the Kp at 2 h ([2]; male, hamster, in vivo, po, 30 mg/kg, Compound P3 PO 30 mg/kg, 2 h, individual animals) was 88.6 and the Kp at 8 h ([2]; male, hamster, in vivo, po, 30 mg/kg, Compound P3 PO 30 mg/kg, 8 h, individual animals) was 194. For the same molecule, the Kp at […] ([2]; male, hamster, in vivo, po, 30 mg/kg, Compound P3 PO 30 mg/kg, individual animals) was 34.8, the Kp at 0.5 h ([2]; male, hamster, in vivo, po, 30 mg/kg, Mean, Compound P3 PO 30 mg/kg, 0.5 h) was 67.4 and the Kp at 1 h ([2]; male, hamster, in vivo, po, 30 mg/kg, Mean, Compound P3 PO 30 mg/kg, 1 h) was 99. It also gave a Kp at 2 h ([2]; male, hamster, in vivo, po, 30 mg/kg, Mean, Compound P3 PO 30 mg/kg, 2 h) of 98, a Kp at 4 h ([2]; male, hamster, in vivo, po, 30 mg/kg, Mean, Compound P3 PO 30 mg/kg, 4 h) of 129 and a Kp at 8 h ([2]; male, hamster, in vivo, po, 30 mg/kg, Mean, Compound P3 PO 30 mg/kg, 8 h) of 232. The Kp at […] ([2]; male, hamster, in vivo, po, 30 mg/kg, Mean, Compound P3 PO 30 mg/kg) was 32.3, the “AUC_% Extrap” value (Compound P3 in plasma, PO 50 mg/kg (PO_A), C57BL/6 mice, Mean n = 3) was 33.5% and the AUClast [15] was 12332 ng·h/mL and 10489 ng·h/mL. The Cmax [15] was 1920 ng/mL and 1560 ng/mL, the Tmax [15] was 0.500 h and the t1/2 [15] was 3.70 h. The “AUC_% Extrap” value (Compound P3 in plasma, PO 100 mg/kg (PO_B), C57BL/6 mice, Mean n = 3) was 28.2%, the AUCInf [16] was 33619 ng·h/mL and 24577 ng·h/mL and 56087 ng·h/mL and the “AUC_% Extrap” value [16] was 22.7% and 23.7% and 38.3%. The AUClast [16] was 18757 ng·h/mL and 34617 ng·h/mL, the Cmax [16] was 2340 ng/mL and 3880 ng/mL and the t1/2 [16] was 13.8 h and 19.8 h. For the same molecule, the “in vivo conversion to niclosamide” value (Compound P3 oral, mice) was “effectively converted in vivo to the active niclosamide”, the “plasma exposure of niclosamide vs that reported for oral niclosamide” value (oral Compound P3, mice) was “much improved plasma exposures of niclosamide” and the AUC(0-inf) (in vivo; [17]) was 88700 ng·h/mL. For the same molecule, the AUC(0-t) (in vivo; [17]) was 9730 ng·h/mL, the AUC(0-t) (in vivo; [18]) was 6360 ng·h/mL and the Cmax (in vivo; [17]) was 1460 ng/mL. The Cmax (in vivo; [18]) was 1140 ng/mL, the half-life (in vivo; [17]) was 4.14 h and the half-life (in vivo; [18]) was 4.58 h. It also gave a Tmax (in vivo; [17]) of 2 h, an AUC(0-inf) (in vivo; [19]) of 38100 ng·h/mL and an AUC(0-t) (in vivo; [19]) of 26400 ng·h/mL. For the same molecule, the AUC(0-t) (in vivo; [20]) was 26000 ng·h/mL, the Cmax (in vivo; [19]) was 3060 ng/mL and the Cmax (in vivo; [20]) was 2970 ng/mL. It also gave a half-life (in vivo; [19]) of 15.3 h, a half-life (in vivo; [20]) of 12.4 h and a Tmax (in vivo; [19]) of 1 h. The Tmax (in vivo; [20]) was 1 h, the half-life [3] was greater than 0.5 h and the “IHC immunoreactivity staining in the right lung” value (SARS-CoV-2) was “lowered in severity”. The Papp [4] was 500 ×10⁻⁶ cm/s.
